Measured values taken from patent publication US9109004B2, “Progesterone receptor antagonists” (Bayer Intellectual Property GmbH, priority 2010, dated 2015).

Target: T1, human progesterone receptor A (Homo sapiens, UniProt P06401)
T1 construct: expressed in transfected cells; host or cells: SK-N-MC human neuroblastoma cells, stably transfected
T1 sequence (P06401 1-769 isoform P06401-2): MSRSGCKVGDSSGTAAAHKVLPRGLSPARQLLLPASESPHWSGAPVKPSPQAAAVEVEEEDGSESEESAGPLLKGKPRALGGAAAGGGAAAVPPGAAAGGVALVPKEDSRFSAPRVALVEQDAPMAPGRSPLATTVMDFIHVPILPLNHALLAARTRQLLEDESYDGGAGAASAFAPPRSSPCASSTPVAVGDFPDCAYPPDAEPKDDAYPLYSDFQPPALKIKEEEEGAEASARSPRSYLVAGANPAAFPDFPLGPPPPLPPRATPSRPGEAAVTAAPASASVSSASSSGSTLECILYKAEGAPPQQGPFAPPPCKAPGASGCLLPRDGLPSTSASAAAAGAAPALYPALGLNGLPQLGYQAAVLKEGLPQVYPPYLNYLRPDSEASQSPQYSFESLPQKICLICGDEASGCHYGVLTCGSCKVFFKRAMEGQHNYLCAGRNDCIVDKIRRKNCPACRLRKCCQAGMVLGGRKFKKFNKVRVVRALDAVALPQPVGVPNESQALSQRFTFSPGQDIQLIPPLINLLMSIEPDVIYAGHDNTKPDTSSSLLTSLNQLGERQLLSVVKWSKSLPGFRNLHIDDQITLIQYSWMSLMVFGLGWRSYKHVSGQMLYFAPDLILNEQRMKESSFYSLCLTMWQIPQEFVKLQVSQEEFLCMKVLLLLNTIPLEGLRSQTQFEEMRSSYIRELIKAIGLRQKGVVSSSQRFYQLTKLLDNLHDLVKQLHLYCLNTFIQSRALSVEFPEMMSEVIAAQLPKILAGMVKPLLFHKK
Test: Progesterone-receptor-antagonistic action in stably transfected SK-N-MC cells, MTV-LUC reporter (PR-A)
Format: cell-based
Settings: antagonistic potency vs 0.1 nmol/l promegestone, 24 hours, luciferase
Experimental: Progesterone-Receptor-Antagonistic Action in Stable Transfectants of Human Neuroblastoma Cells (SK-N-MC Cells) with the Human Progesterone A or Progesterone B Receptor and an MTV-LUC Reporter Construct
SK-N-MC cells (human neuroblastoma cells) that have been stably transfected with plasmids that express the human progesterone receptor B (pRChPR-B-neo) or the human progesterone receptor A (pRChPR-A-neo) and a reporter construct (pMMTV-LUC), were incubated for 24 hours either in the absence (negative control) or in the presence of increasing amounts of the particular test compound (0.01 nmol/l, 0.1 nmol/l, 1 nmol/l, 10 nmol/l, 100 nmol/l and 1 μmol/l), to determine the agonistic efficacy. As positive control of reporter gene induction, the cells were treated with the synthetic gestagen promegestone (0.01 nmol/l, 0.1 nmol/l, 1 nmol/l, 10 nmol/l, 100 nmol/l and 1 μmol/l). For determination of the antagonistic activity, the cells were treated with 0.1 nmol/l promegestone and additionally with increasing amounts of the particular test compound (0.01 nmol/l, 0.1 nmol/l, 1 nmol/l, 10 nmol/l, 100 nmol/l and 1 μmol/l). The activity of the reporter gene LUC (LUC=luciferase) was determined in the cell lysates and was measured as RLU (relative light units). All measured values are given as % efficacy and as EC50 or IC50 concentrations.

| IC50 | SMILES |
| --- | --- |
| 133 nM | CCN(CC)C(=O)c1ccc([C@H]2C[C@@]3(C)[C@@H](CC[C@@]3(O)C(F)(F)C(F)(F)F)[C@@H]3CCC4=CC(=O)CCC4=C32)cc1 [Example 27, N,N-diethyl-4-[(11β,17β)-17-hydroxy-3-oxo-17-(pentafluoroethyl)estra-4,9-dien-11-yl]benzamide] |
| 5.7 nM | CN(CCc1ccncc1)C(=O)c1ccc([C@H]2C[C@@]3(C)[C@@H](CC[C@@]3(O)C(F)(F)C(F)(F)F)[C@@H]3CCC4=CC(=O)CCC4=C32)cc1 [Example 58, 4-[(11β,17β)-17-hydroxy-3-oxo-17-(pentafluoroethyl)estra-4,9-dien-11-yl]-N-methyl-N-[2-(pyridin-4-yl)ethyl]benzamide] |
| 39 nM | C[C@]12C[C@H](c3ccc(C(=O)Nc4ccccc4)cc3)C3=C4CCC(=O)C=C4CC[C@H]3[C@@H]1CC[C@@]2(O)C(F)(F)C(F)(F)F [Example 22, 4-[(11β,17β)-17-hydroxy-3-oxo-17-(pentafluoroethyl)estra-4,9-dien-11-yl]-N-phenylbenzamide] |
| 1.4 nM | CCNC(=O)c1ccc([C@H]2C[C@@]3(C)[C@@H](CC[C@@]3(O)C(F)(F)C(F)(F)F)[C@@H]3CCC4=CC(=O)CCC4=C32)cc1 [Example 19, N-ethyl-4-[(11β,17β)-17-hydroxy-3-oxo-17-(pentafluoroethyl)estra-4,9-dien-11-yl]benzamide] |
| 375 nM | CN(Cc1cccnc1)C(=O)c1ccc([C@H]2C[C@@]3(C)[C@@H](CC[C@@]3(O)C(F)(F)C(F)(F)F)[C@@H]3CCC4=CC(=O)CCC4=C32)cc1 [Example 32, 4-[(11β,17β)-17-hydroxy-3-oxo-17-(pentafluoroethyl)estra-4,9-dien-11-yl]-N-methyl-N-(pyridin-3-ylmethyl)benzamide] |
| 1.32 nM | C[C@]12C[C@H](c3ccc(C(=O)Nc4cccnc4)cc3)C3=C4CCC(=O)C=C4CC[C@H]3[C@@H]1CC[C@@]2(O)C(F)(F)C(F)(F)F [Example 12, 4-[(11β,17β)-17-hydroxy-3-oxo-17-(pentafluoroethyl)estra-4,9-dien-11-yl]-N-(pyridin-3-yl)benzamide] |
| 346 nM | CN(C)CCN1CCN(C(=O)c2ccc([C@H]3C[C@@]4(C)[C@@H](CC[C@@]4(O)C(F)(F)C(F)(F)F)[C@@H]4CCC5=CC(=O)CCC5=C43)cc2)CC1 [Example 47, (11β,17β)-11-[4-({4-[2-(dimethylamino)ethyl]piperazin-1-yl}carbonyl)phenyl]-17-hydroxy-17-(pentafluoroethyl)estra-4,9-dien-3-one] |
| 2.3 nM | C[C@]12C[C@H](c3ccc(C(=O)NCc4cccc(Cl)c4)cc3)C3=C4CCC(=O)C=C4CC[C@H]3[C@@H]1CC[C@@]2(O)C(F)(F)C(F)(F)F [Example 56, N-(3-chlorobenzyl)-4-[(11β,17β)-17-hydroxy-3-oxo-17-(pentafluoroethyl)estra-4,9-dien-11-yl]benzamide] |
| 10 nM | C[C@]12C[C@H](c3ccc(C(=O)Nc4ccccn4)cc3)C3=C4CCC(=O)C=C4CC[C@H]3[C@@H]1CC[C@@]2(O)C(F)(F)C(F)(F)F [Example 11, 4-[(11β,17β)-17-hydroxy-3-oxo-17-(pentafluoroethyl)estra-4,9-dien-11-yl]-N-(pyridin-2-yl)benzamide] |
| 6.9 nM | C[C@]12C[C@H](c3ccc(C(=O)NCC4CC4)cc3)C3=C4CCC(=O)C=C4CC[C@H]3[C@@H]1CC[C@@]2(O)C(F)(F)C(F)(F)F [Example 59, N-(cyclopropylmethyl)-4-[(11β,17β)-17-hydroxy-3-oxo-17-(pentafluoroethyl)estra-4,9-dien-11-yl]benzamide] |

Continued, compound first:

| SMILES | IC50 |
| --- | --- |
| COc1ccccc1NC(=O)c1ccc([C@H]2C[C@@]3(C)[C@@H](CC[C@@]3(O)C(F)(F)C(F)(F)F)[C@@H]3CCC4=CC(=O)CCC4=C32)cc1 [Example 23, 4-[(11β,17β)-17-hydroxy-3-oxo-17-(pentafluoroethyl)estra-4,9-dien-11-yl]-N-(2-methoxyphenyl)benzamide] | 86 nM |
| C[C@]12C[C@H](c3ccc(C(=O)N4CCN(CCN5CCCC5)CC4)cc3)C3=C4CCC(=O)C=C4CC[C@H]3[C@@H]1CC[C@@]2(O)C(F)(F)C(F)(F)F [Example 48, (11β,17β)-17-hydroxy-17-(pentafluoroethyl)-11-[4-({4-[2-(pyrrolidin-1-yl)ethyl]piperazin-1-yl}carbonyl)phenyl]estra-4,9-dien-3-one] | 667 nM |
| C[C@]12C[C@H](c3ccc(C(=O)N4CCN(Cc5ccncc5)CC4)cc3)C3=C4CCC(=O)C=C4CC[C@H]3[C@@H]1CC[C@@]2(O)C(F)(F)C(F)(F)F [Example 49, (11β,17β)-17-hydroxy-17-(pentafluoroethyl)-11-(4-{[4-(pyridin-4-ylmethyl)piperazin-1-yl]carbonyl}phenyl)estra-4,9-dien-3-one] | 7.6 nM |
| C[C@]12C[C@H](c3ccc(C(=O)N4CCC(c5ccccc5)CC4)cc3)C3=C4CCC(=O)C=C4CC[C@H]3[C@@H]1CC[C@@]2(O)C(F)(F)C(F)(F)F [Example 63, (11β,17β)-17-hydroxy-17-(pentafluoroethyl)-11-{4-[(4-phenylpiperidin-1-yl)carbonyl]phenyl}estra-4,9-dien-3-one] | 4.1 nM |
| C[C@]12C[C@H](c3ccc(C(=O)N4CCN(C(=O)c5ccccc5)CC4)cc3)C3=C4CCC(=O)C=C4CC[C@H]3[C@@H]1CC[C@@]2(O)C(F)(F)C(F)(F)F [Example 65, (11β,17β)-11-{4-[(4-benzoylpiperazin-1-yl)carbonyl]phenyl}-17-hydroxy-17-(pentafluoroethyl)estra-4,9-dien-3-one] | 2.7 nM |
| CC(C)(NC(=O)c1ccc([C@H]2C[C@@]3(C)[C@@H](CC[C@@]3(O)C(F)(F)C(F)(F)F)[C@@H]3CCC4=CC(=O)CCC4=C32)cc1)c1ccccc1 [Example 17, 4-[(11β,17β)-17-hydroxy-3-oxo-17-(pentafluoroethyl)estra-4,9-dien-11-yl]-N-(2-phenylpropan-2-yl)benzamide] | 0.21 nM |
| C[C@]12C[C@H](c3ccc(C(=O)N4CCN(Cc5ccccc5)CC4)cc3)C3=C4CCC(=O)C=C4CC[C@H]3[C@@H]1CC[C@@]2(O)C(F)(F)C(F)(F)F [Example 40, (11β,17β)-11-{4-[(4-benzylpiperazin-1-yl)carbonyl]phenyl}-17-hydroxy-17-(pentafluoroethyl)estra-4,9-dien-3-one] | 117 nM |
| C[C@]12C[C@H](c3ccc(C(=O)N4CCc5ccccc5C4)cc3)C3=C4CCC(=O)C=C4CC[C@H]3[C@@H]1CC[C@@]2(O)C(F)(F)C(F)(F)F [Example 39, (11β,17β)-11-[4-(3,4-dihydroisoquinolin-2(1H)-ylcarbonyl)phenyl]-17-hydroxy-17-(pentafluoroethyl)estra-4,9-dien-3-one] | 9.5 nM |
| C[C@]12C[C@H](c3ccc(C(=O)NCCCN4CCOCC4)cc3)C3=C4CCC(=O)C=C4CC[C@H]3[C@@H]1CC[C@@]2(O)C(F)(F)C(F)(F)F [Example 13, 4-[(11β,17β)-17-hydroxy-3-oxo-17-(pentafluoroethyl)estra-4,9-dien-11-yl]-N-[3-(morpholin-4-yl)propyl]benzamide] | 24 nM |
| COc1ccc(CNC(=O)c2ccc([C@H]3C[C@@]4(C)[C@@H](CC[C@@]4(O)C(F)(F)C(F)(F)F)[C@@H]4CCC5=CC(=O)CCC5=C43)cc2)cc1 [Example 35, 4-[(11β,17β)-17-hydroxy-3-oxo-17-(pentafluoroethyl)estra-4,9-dien-11-yl]-N-(4-methoxybenzyl)benzamide] | 34 nM |
| C[C@]12C[C@H](c3ccc(C(=O)N4CCN(c5cnccn5)CC4)cc3)C3=C4CCC(=O)C=C4CC[C@H]3[C@@H]1CC[C@@]2(O)C(F)(F)C(F)(F)F [Example 46, (11β,17β)-17-hydroxy-17-(pentafluoroethyl)-11-(4-{[4-(pyrazin-2-yl)piperazin-1-yl]carbonyl}phenyl)estra-4,9-dien-3-one] | 4.3 nM |
